Measurements: patent US20230086702A1, “SUBSTITUTED 2-AMINO-PYRAZOLYL-[1,2,4]TRIAZOLO[1,5A]PYRIDINE DERIVATIVES AND USE THEREOF” (The Johns Hopkins University, priority 2019, published 2023)

How the values were obtained:
[1] = target: T1, LZK (Homo sapiens, UniProt O43283); assay: LZK biochemical assay (TR-FRET, MKK7 phosphorylation); conditions: LZK catalytic domain, MKK7 substrate, 15 μM ATP
T1 construct: 10 nM LZK, catalytic domain, Carna Biosiences in assay buffer; purchased Carna Biosciences ('Carna Biosiences' [sic])
T1 sequence (O43283 168-409 limits assumed): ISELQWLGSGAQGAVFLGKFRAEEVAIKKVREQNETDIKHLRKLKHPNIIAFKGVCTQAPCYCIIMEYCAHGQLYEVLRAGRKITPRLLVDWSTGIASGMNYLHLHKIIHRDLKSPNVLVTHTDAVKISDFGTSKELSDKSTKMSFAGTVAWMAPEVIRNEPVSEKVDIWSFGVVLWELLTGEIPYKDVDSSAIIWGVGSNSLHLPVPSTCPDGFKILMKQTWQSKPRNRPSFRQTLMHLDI
Procedure: (§1) LZK assay is a biochemical assay format designed to screen for inhibitors of LZK. Enzymatic activity of LZK is measured by monitoring phosphorylation of the physiological substrate MKK7 (MAP2K7, Dual specificity mitogen-activated protein kinase kinase 7). Phosphorylation is detected by a TR-FRET system whereby His-tagged MKK7 is labeled by a XL665-labeled anti-His antibody (FRET acceptor, emission 665 nm). LZK phosphorylates MKK7 at T275/S277 which is detected by an Eu-labeled anti-phospho-MKK7 (T275/S277) antibody (FRET donor, excitation 340 nm). Phosphorylation of MKK7 results in an increased TR-FRET signal (Ratio XL665-channel/Eu-channel) and inhibition of enzymatic activity of LZK decreases the TR-FRET signal.
All indicated concentrations final concentrations.
(§2) Detection buffer: 25 mM Tris/HCl pH 7.5, 100 mM EDTA, 100 mM NaCl, 200 mM KF, 0.01% Tween 20, 1:500 Smart Block.

[2] = target: T2, DLK (Homo sapiens, UniProt Q12852); assay: DLK biochemical assay (TR-FRET, MKK7 phosphorylation); conditions: DLK catalytic domain, MKK7 substrate, 60 μM ATP
T2 construct: 10 nM DLK, catalytic domain, Carna Biosiences; purchased Carna Biosciences ('Carna Biosiences' [sic])
T2 sequence (Q12852 125-366 limits assumed): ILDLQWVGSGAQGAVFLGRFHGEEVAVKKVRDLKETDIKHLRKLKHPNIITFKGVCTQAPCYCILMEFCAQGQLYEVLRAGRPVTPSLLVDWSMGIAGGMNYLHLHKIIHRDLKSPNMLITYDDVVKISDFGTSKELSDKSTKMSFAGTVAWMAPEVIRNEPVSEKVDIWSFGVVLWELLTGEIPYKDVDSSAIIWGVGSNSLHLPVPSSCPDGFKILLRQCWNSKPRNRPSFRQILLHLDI
Procedure: as §1, with “DLK assay” for “LZK assay”, “of DLK.” for “of LZK.”, “of DLK” for “of LZK”, “nm). DLK” for “nm). LZK”, “at T275/S277,” for “at T275/S277”
All indicated concentrations are final concentrations.
as §2

| SMILES | IC50 [1] | IC50 [2] |
| --- | --- | --- |
| CC[C@H](C)NC(=O)c1cc(-c2cnn(C3CCOc4ccccc43)c2)cc2nc(N)nn12 (mixture of isomers) [Example I-16, 2-Amino-N-[(2S)-butan-2-yl]-7-[1-(3,4-dihydro-2H-chromen-4-yl)-1H-pyrazol-4-yl][1,2,4]triazolo[1,5-a]pyridine-5-carboxamide] | 3.3 nM | 22 nM |
| CC[C@H](C)NC(=O)c1cc(-c2cnn(Cc3cccc4cn[nH]c34)c2)cn2nc(N)nc12 (single isomer, unassigned) [Example I-23] | 56 nM | 2.7 nM |
| CC[C@H](C)NC(=O)c1cc(-c2cnn([C@@H](CC)c3ccc(C(F)(F)F)nc3)c2)cn2nc(N)nc12 (single isomer, unassigned) [Example I-71] | 4.5 nM | 1.4 nM |
| CC[C@H](C)NC(=O)c1cc(-c2cnn(C(c3ccnc(OC)c3)C(C)C)c2)cc2nc(N)nn12 (single isomer, unassigned) [Example I-127] | 52 nM | 17 nM |
| CC[C@H](C)NC(=O)c1cc(-c2cnn(C(c3ccc(C(F)F)nc3)C(C)C)c2)cn2nc(N)nc12 (mixture of isomers) [Example I-67, 2-Amino-N-[(2S)-butan-2-yl]-6-(1-{1-[6-(difluoromethyl)pyridin-3-yl]-2-methylpropyl}-1H-pyrazol-4-yl)[1,2,4]triazolo[1,5-a]pyridine-8-carboxamide] | 5.6 nM | 1.1 nM |
| CC[C@H](C)NC(=O)c1cc(-c2cnn(C(c3ccc(C(F)F)nc3)C(C)C)c2)cn2nc(N)nc12 (single isomer, unassigned) [Example I-68] | 43 nM | 14 nM |
| CC[C@H](C)NC(=O)c1cc(-c2cnn(C(c3ccc(C(F)(F)F)nc3)C3CCN(C(=O)OC(C)(C)C)CC3)c2)cn2nc(N)nc12 (mixture of isomers) [Example I-79, tert-Butyl 4-{(4-{2-amino-8-[(2S)-butan-2-ylcarbamoyl][1,2,4]triazolo[1,5-a]pyridin-6-yl}-1H-pyrazol-1-yl)[6-(trifluoromethyl)pyridin-3-yl]methyl}piperidine-1-carboxylate] | 1.4 nM | 0.8 nM |
| CCC(c1ccc(N2CCOCC2)cc1)n1cc(-c2cc(C(=O)N[C@@H](C)CC)c3nc(N)nn3c2)cn1 (single isomer, unassigned) [Example I-48] | 120 nM | 25 nM |
| CC[C@H](C)NC(=O)c1cc(-c2cnn(C3CCCC3)c2)cc2nc(N)nn12 (single isomer, unassigned) [Example I-12] | 70 nM | 120 nM |
| CCC(c1ccc(N2CCOCC2)cc1)n1cc(-c2cc(C(=O)N[C@@H](C)CC)c3nc(N)nn3c2)cn1 (mixture of isomers) [Example I-47, 2-Amino-N-[(2S)-butan-2-yl]-6-(1-{1-[4-(morpholin-4-yl)phenyl]propyl}-1H-pyrazol-4-yl)[1,2,4]triazolo[1,5-a]pyridine-8-carboxamide] | 40 nM | 3.8 nM |
| CCC(c1ccc(C(F)(F)F)nc1)n1cc(-c2cc(C(=O)N[C@@H](C)CO)c3nc(N)nn3c2)cn1 (single isomer, unassigned) [Example I-152] | 3.9 nM | 0.7 nM |
| CC[C@H](C)NC(=O)c1cc(-c2cnn([C@H](c3ccccc3)C(C)C)c2)cc2nc(N)nn12 (single isomer, unassigned) [Example I-26] | 18 nM | 1.1 nM |
| CC[C@H](C)NC(=O)c1cc(-c2cnn(C(c3c(F)cncc3F)C(C)C)c2)cc2nc(N)nn12 (single isomer, unassigned) [Example I-124] | 270 nM | 60 nM |
| CC[C@H](C)NC(=O)c1cc(-c2cnn(C3CCc4ccccc43)c2)cn2nc(N)nc12 (mixture of isomers) [Example I-13, 2-Amino-N-[(2S)-butan-2-yl]-6-[1-(2,3-dihydro-1H-inden-1-yl)-1H-pyrazol-4-yl][1,2,4]triazolo[1,5-a]pyridine-8-carboxamide] | 7.7 nM | 68 nM |
| CC[C@H](C)NC(=O)c1cc(-c2cnn(C3CCCc4cnccc43)c2)cc2nc(N)nn12 (mixture of isomers) [Example I-20, 2-Amino-N-[(2S)-butan-2-yl]-7-[1-(5,6,7,8-tetrahydroisoquinolin-5-yl)-1H-pyrazol-4-yl][1,2,4]triazolo[1,5-a]pyridine-5-carboxamide] | 4.4 nM | 11 nM |
| CC[C@H](C)NC(=O)c1cc(-c2cnn(C(c3ccc(C(F)(F)F)nc3)C3CCNCC3)c2)cn2nc(N)nc12 (single isomer, unassigned) [Example I-83] | 0.7 nM | 0.3 nM |
| CC[C@H](C)NC(=O)c1cc(-c2cnn(C(c3ccc(C(F)(F)F)nc3)C3CCOCC3)c2)cc2nc(N)nn12 (single isomer, unassigned) [Example I-112] | 7 nM | 8 nM |
| CC[C@H](C)NC(=O)c1cc(-c2cnn(C3CCN(C4COC4)CC3)c2)cn2nc(N)nc12 (single isomer, unassigned) [Example I-8] | 9.4 nM | 68 nM |
| CC[C@H](C)NC(=O)c1cc(-c2cnn(C(c3ccc(OCC(F)(F)F)nc3)C(C)C)c2)cn2nc(N)nc12 (single isomer, unassigned) [Example I-90] | 34 nM | 3 nM |
| CC[C@H](C)NC(=O)c1cc(-c2cnn(C(CC(F)(F)F)c3ccccc3)c2)cn2nc(N)nc12 (mixture of isomers) [Example I-37, 2-Amino-N-[(2S)-butan-2-yl]-6-{1-[3,3,3-trifluoro-1-phenylpropyl]-1H-pyrazol-4-yl}[1,2,4]triazolo[1,5-a]pyridine-8-carboxamide] | 240 nM | 3.6 nM |
| CC[C@@H](c1ccc(OC(F)(F)F)nc1)n1cc(-c2cc(C(=O)NC(C)(C)CO)c3nc(N)nn3c2)cn1 (single isomer, unassigned) [Example I-170, 2-Amino-N-(1-hydroxy-2-methylpropan-2-yl)-6-(1-{1-[6-(trifluoromethoxy)pyridin-3-yl]propyl}-1H-pyrazol-4-yl)[1,2,4]triazolo[1,5-a]pyridine-8-carboxamide] | 18 nM | 5.5 nM |
| CC[C@H](C)NC(=O)c1cc(-c2cnn([C@@H](CC)c3ccc(F)cc3)c2)cc2nc(N)nn12 (single isomer, unassigned) [Example I-54] | 8.5 nM | 1.9 nM |
| CCC(c1ccc(OCC(F)(F)F)nc1)n1cc(-c2cc(C(=O)N[C@H]3CCOC3)n3nc(N)nc3c2)cn1 (single isomer, unassigned) [Example I-187] | 18 nM | 0.8 nM |
| C[C@@H](CF)NC(=O)c1cc(-c2cnn(C3CCOc4ccccc43)c2)cn2nc(N)nc12 (mixture of isomers) [Example I-143, 2-Amino-6-{1-[3,4-dihydro-2H-1-benzopyran-4-yl]-1H-pyrazol-4-yl}-N-[1-fluoropropan-2-yl][1,2,4]triazolo[1,5-a]pyridine-8-carboxamide] | 15 nM | 33 nM |
| CCC(c1ccc(C(F)F)nc1)n1cc(-c2cc(C(=O)N[C@@H](C)CC)n3nc(N)nc3c2)cn1 (mixture of isomers) [Example I-92, 2-Amino-N-[(2S)-butan-2-yl]-7-(1-{1-[6-(difluoromethyl)pyridin-3-yl]propyl}-1H-pyrazol-4-yl)[1,2,4]triazolo[1,5-a]pyridine-5-carboxamide] | 3.9 nM | 2 nM |
| CC(C)(CO)NC(=O)c1cc(-c2cnn(C(c3ccc(C(F)(F)F)nc3)C3CCOCC3)c2)cn2nc(N)nc12 (racemic) [Example I-166, 2-Amino-N-(1-hydroxy-2-methylpropan-2-yl)-6-(1-{tetrahydro-2H-pyran-4-yl[6-(trifluoromethyl)pyridin-3-yl]methyl}-1H-pyrazol-4-yl)[1,2,4]triazolo[1,5-a]pyridine-8-carboxamide] | 20 nM | 4.2 nM |
| CCC(c1ccc(OCC(F)(F)F)nc1)n1cc(-c2cc(C(=O)N[C@H]3CCOC3)n3nc(N)nc3c2)cn1 (single isomer, unassigned) [Example I-188] | 190 nM | 16 nM |
